Measurements as given in US7226761B2, “Manufacture of five-carbon sugars and sugar alcohols” (Danisco Sweeteners Oy, priority 1992, dated 2007).
Like-named read-outs stand apart in the source and are kept apart here.

Experiments:
[1] = test system: TKL1,2 deficient strain harboring the XDH encoding gene from P. stipitis on a multi-copy plasmid (H1057); details: for Polyols from glucose consumed in %: 25 μM IA
Method: TKL1,2 deficient strain H1055 carrying the pAOS67 multi-copy plasmid harboring the XDH encoding gene from P. stipitis (H1057) was cultivated in the presence of 25 μM IA (Fluka Chemie AG, Switzerland). The growth medium was SCD lacking histidine for plasmid selection and 7.65 g/l KNO3. Samples were withdrawn at the indicated time points, the OD600 measured, cells removed by centrifugation, and the growth medium samples were assayed for polyols by the Boehringer Mannheim D-sorbitol/xylitol kit and for glucose by the Boehringer Mannheim GOD-Perid kit.

DOG1 = molecular target: T1, DOG1 (Saccharomyces cerevisiae, UniProt P38774); assay: Specificity of DOG1 towards sugar phosphates in yeast cell extracts (phosphate release); format: biochemical, S. cerevisiae; details: 20 mM substrate; cell extract of H1514; relative to 2-deoxyglucose-6-P as 100%
T1 construct: expressed in transfected cells; host or cells: S. cerevisiae H1104 (W303-1B) transformed with plasmid B1020 (YEplac195, ADH1 promoter-DOG1-ADH1 terminator) = strain H1514; crude cell extract
T1 sequence (P38774 1-246): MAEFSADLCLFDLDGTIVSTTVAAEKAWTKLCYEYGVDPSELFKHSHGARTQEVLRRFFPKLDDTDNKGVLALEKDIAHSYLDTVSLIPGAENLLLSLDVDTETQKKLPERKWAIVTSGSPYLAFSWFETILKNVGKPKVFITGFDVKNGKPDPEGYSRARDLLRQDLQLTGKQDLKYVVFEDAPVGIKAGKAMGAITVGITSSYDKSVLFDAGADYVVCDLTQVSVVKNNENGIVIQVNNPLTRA
Method: The specificity of DOG1 towards xylulose-5-P, ribulose-5-P, ribose-5-P and 2-deoxyglucose-6-P was determined using 20 mM substrate concentrations. Yeast cell extracts were prepared as described in example 15, except that 50 mM imidazole-HCl, 10 mM MgCl2 buffer, pH 6.0 was used. 10 μl of extract and 210 μl of substrate (20 mM) in the same buffer was incubated for 30 min, 30° C. The reaction was stopped with final 2% of TCA and the phosphate released was measured using ammonium molybdate (15 mM), zinc acetate (100 mM), pH 5.0 as the reagent. The formation of molybdenum blue was measured at 350 nm, and quantified by phosphate standards (Sanz, P. et al., Yeast 10:1195–1202 (1994); Bencini, D. A. et al., Anal. Biochem. 132:254–258 (1983)).

[2] = Xylulose 5-phosphate reductase (XPDH/APDH) activity assay with NADH; format: biochemical; details: cell extract of transformed B. subtilis BD170; xylulose 5-phosphate usually 5 mM
Method: The strain BD 170 [pGTK24(MXD2)] as well as untransformed strain BD 170 was grown overnight on either LB or LB, containing 10% glucose, cell extracts were prepared and the XDH activity measured. The assay conditions for measuring XDH activity were: 30° C., 50 mM Tris-HCI, pH 7.0, 0.2 mM NADH and 10 mM D-xylulose. Changes of absorption at 340 nm were recorded; one unit of activity was defined as the amount of enzyme that catalyzed the reduction of one […] of substrate per minute under the conditions of assay (assuming the differential absorption coefficient NADH/NAD^+ to be equal to […]). The following levels of XDH activity were measured in the strain BD170 [pGTK24(MXD2)] grown on the two media: LB—0.5 U/mgproteins, LB-glucose 0.05–0.15 U/mgprotein. Thus, glucose appeared to repress the activity of the aldolase promoter 3–10 fold. No XDH activity could be detected in the strain BD170 grown on either of the two media.
B. subtilis strain BD170 was transformed with pGTK74(LRXPDH) and pGTK74(BHDH2). The transformants were grown overnight in LB containing 25 mg/liter kanamycin, cell extract were prepared by sonication and the activity of XPDH activity was measured. The conditions for measuring the XPDH activity were similar to those used for measuring the xylitol dehydrogenase activity except that xylulose 5-phosphate was used as the substrate (usually at 5 mM concentration) instead of xylulose. The activities were approximately 0.3 U/mg protein for the XPDH from L. rhamnosus and about 0.5 U/mg protein for B. halodurans enzyme.
Enterococcus avium ATCC 35655 was cultivated at 30° C. in 5 liters of a medium containing: peptone—10 g/l, yeast extract—5 g/l, beef extract 10 g/l, K2HPO4 2 g/l, NaCl—5 g/l, MgSO4—0.02 g/l, MnCl2—0.05 g/l, ammonium citrate 2 g/l, Tween 20—1.1 ml/l, xylitol—20g/l, pH 6.5. […]

[3] = Stereospecificity of D-xylulose 5-phosphate reduction, products dephosphorylated and analyzed by HPLC; format: biochemical; details: 10 mM xylulose 5-phosphate, 10 mM NADH, pH 7.0, 37° C.
Method: The stereospecificity of xylulose-phosphate reduction by the B. halodurans XPDH was verified by the following procedure. The reaction between D-xylulose 5-phosphate and NADH was conducted at 37° C. for several hours under the following conditions: 100 mM Tris-HC buffer, pH 7.0, 10 mM xylulose 5-phosphate, 10 mM NADH, […] the enzyme lysate. The reaction products were dephosphorylated with alkaline phosphatase and analyzed by HPLC. […] It should be noted that among the highest-scoring four homologues of the L. rhamnosus XPDH, the enzyme from B. holodurans is the least homologous. This can be interpreted as an indication that the other three homologues (SEQ ID NO:51, 52 and 53) are most probably also xylitol-phosphate dehydrogenases.
The stereospecificity of D-xylulose 5-phosphate reduction by the E. avium arabitol-phosphate dehydrogenase was verified by the following procedure. The reaction between D-xylulose 5-phosphate and NADH was conducted at 37° C. for several hours under the following conditions: 100 mM Tris-HCl buffer, pH 7.0, 10 mM xylulose 5-phosphate, 10 mM NADH, 1U of the enzyme. The reaction products were dephosphorylated with alkaline phosphatase and analyzed by HPLC. […] There are no other arabitol-phosphate dehydrogenases described in the art.
Both arabitol-phosphate dehydrogenase genes were expressed using the same tools and methods as those used for the expression of xylitol-phosphate dehydrogenases (Example 26). Briefly, the coding regions of the two arabitol-phosphate dehydrogenase genes were amplified using the chromosomal DNA of the microorganism from which the enzyme was isolated and the appropriate PCR primers. In the case of E. avium the primers were oAPDH 51 […] SEQ ID NO: 71) and the anti-sense primer oAPDH 31 […]) SEQ ID NO: 72. For B. halodurans, the sense primer was oBHDH 5 ([…], SEQ ID NO: 73) and the anti-sense primer was oBHDH 3 ([…], SEQ ID NO: 74). […] The stereospecificity of D-xylulose 5-phosphate reduction by the previously unknown enzyme from B. halodurans was determined as described in Example 30.

## O=C(O)CI [iodacetate, iodoacetate]
[1]; 28 h
  Polyols from glucose consumed in %: 0.45%
[1]; 45 h
  Polyols from glucose consumed in %: 0.74%
[1]; 52 h
  Polyols from glucose consumed in %: 0.57%
[1]; 69 h
  Polyols from glucose consumed in %: 0.72%
[1]; 77 h
  Polyols from glucose consumed in %: 0.87%
[1]; 93 h
  Polyols from glucose consumed in %: 0.93%
[1]; 100 h
  Polyols from glucose consumed in %: 1.13%
[1]; in the presence of iodoacetate
  glucose consumed metabolised to polyols (xylitol+part of ribitol): 1.2%
[1]; in the presence of iodoacetate vs without
  increase in polyol production: about 30%

## O=C(CO)[C@@H](O)[C@H](O)COP(=O)(O)O [xylulose-5-P, Xylulose-5-phosphate]
DOG1
  Relative activity (20 mM): 15%

B1: XPDH from L. rhamnosus: xylitol-phosphate dehydrogenase from Lactobacillus rhamnosus, SEQ ID NO:49 (protein, listed as Lactobacillus rhamnosus)
chain: MKASMLEDLNKFSVKEIDIPSPKKDEVVVKVMAAGTCGSDSHKMISGWKYGYPAVMGHEFSGIVTQLGENVSNVSVGQHVAVAPFIPCFKCHYCQIGLFQMCENYSMLGQQKFGGFEQYVSVPARNVLDIGKMSFEEGALIEPMAVAAHAVMGIKPELGDTVAVFGLGTVGDLVVRLLISSGATNVIGIDIDDQKLEKGLDEGCTHVINSAKESLEEKIMEYTDGLGVDISMECAGSKITEEQTLLVTKRRGKVGFVGIAYSDVLLHQKAFENIFRHELTVTGFWNSYSAPFPGREWTNSIQLVNRGRIKIKDLITHRFELEDMQKAFNMITTRSESFNKVMFFPNGIN
[2]
  XPDH activity: approximately 0.3 U/mg protein

B2: B. halodurans enzyme: xylitol-phosphate dehydrogenase from B. halodurans, SEQ ID NO:50, expressed from pGTK74(BHDH2) (protein)
chain: MKALNLYGIQDLRFEETPAPSIEHDDDIIIKVKAVGICGSDLSRYKKLGPYVPGMTFGHEFAGEVVKIGRSVTGFSIGDRVAACPTYTCGQCRYCQLGEPTRCERLSVIGARHPGAYAEYVKLPAKHVIPLPNVVNYDEAALIEPASVVAHGFYRTNIKPGASVAIMGVGSIGLLAVQWAKIFGATTVFAIDIDEQKLNVANQLGADVLISSLQRPAHKQILEYTNGIGVDVAVESAGTPSTSAQVFALPKKGGEVVFLGIPYADVQIERFYFEKIVRNELHVYGSWNALSSPFPGKEWATTIHYMSSGQLNVAPMISYRLPLAKGPETFQQIAKGELKPTKVLFYPEKLSERK
modifications: Bacillus halodurans
[2]
  XPDH activity: about 0.5 U/mg protein
[3]
  products found in the reaction mixture / stereospecificity: Only xylitol and xylulose (corresponding to the unreacted xylulose 5-phosphate) but no arabitol were found

B3: enzyme from B. halodurans: D-arabitol-phosphate dehydrogenase from B. halodurans, SEQ ID NO:70, expressed from pGTK74(BHDH) (protein)
chain: MKALVKTQHGTGHFAVQEKPEPTPGKHQVKIKVKYTGVCGSDIHTYEGHYPVAAPVTLGHEFSGEIVELGEGVTGFNVGDRVTSETTYSICGKCSYCTSGDYNLCSHRKGLGNQQDGSFAKYVIARQESLHHLPAGVDDRSAAMTEPLACTHHAIAKTSINKGDLVVVTGPGPIGLLAAQVAKSHGGTVIITGLSNDQVRLKKAKEVGIDYAIDTQEVDIKELVSELTDGYGADVVLECSGAVPAAKQGIDLLRKKGQYAQVGLFAQPEIQFNFEKIIQKEISVVGSRSQKPADWEPALSLLNEKKVNAKTLVTHEYTISEWDKAYHAIKSGEAIKVLLTPID
modifications: Bacillus halodurans (deduced sequence)
[3]
  products found in the reaction mixture / stereospecificity: this enzyme is indeed a D-arabitol-phosphate dehydrogenase
